Experimental data taken from article PMC10369073, “Production, identification, in silico analysis, and cytoprotection on H2O2-induced HUVECs of novel angiotensin-I-converting enzyme inhibitory peptides from Skipjack tuna roes” (Frontiers in Nutrition, 2023).
Values belong to the molecule of their own block, whether it stands above or below them.

Key:
HUVECs [1] = assay: NO production in HUVECs (assay kit); format: cell-based, human; settings: control 33.68 ± 0.96 μM
Experimental: (§1) HUVECs were cultured in DMEM supplemented with 100 µg/mL streptomycin, 10% FBS (v/v), and 100 U/mL penicillin at 37°C in a humidified 5% CO2 atmosphere for 24 h.
(§2) After treating with ACEi peptides (TRP3, TRP6, TRP9, or TRP12, respectively) for 24 h, NO and ET-1 contents were separately determined by employing human NO and ET-1 assay kit as per manufactures’ protocol ([18]).

HUVECs [2] = assay: ET-1 secretion in HUVECs (assay kit); format: cell-based, human; settings: control 55.37 ± 2.53 pg./mL
Experimental: as §1, §2

ACE [3] = target: T1, ACE (Oryctolagus cuniculus, UniProt P12822); settings: cited from earlier work; for IC50: read-out: ACEi IC50
T1 sequence (P12822 34-1310): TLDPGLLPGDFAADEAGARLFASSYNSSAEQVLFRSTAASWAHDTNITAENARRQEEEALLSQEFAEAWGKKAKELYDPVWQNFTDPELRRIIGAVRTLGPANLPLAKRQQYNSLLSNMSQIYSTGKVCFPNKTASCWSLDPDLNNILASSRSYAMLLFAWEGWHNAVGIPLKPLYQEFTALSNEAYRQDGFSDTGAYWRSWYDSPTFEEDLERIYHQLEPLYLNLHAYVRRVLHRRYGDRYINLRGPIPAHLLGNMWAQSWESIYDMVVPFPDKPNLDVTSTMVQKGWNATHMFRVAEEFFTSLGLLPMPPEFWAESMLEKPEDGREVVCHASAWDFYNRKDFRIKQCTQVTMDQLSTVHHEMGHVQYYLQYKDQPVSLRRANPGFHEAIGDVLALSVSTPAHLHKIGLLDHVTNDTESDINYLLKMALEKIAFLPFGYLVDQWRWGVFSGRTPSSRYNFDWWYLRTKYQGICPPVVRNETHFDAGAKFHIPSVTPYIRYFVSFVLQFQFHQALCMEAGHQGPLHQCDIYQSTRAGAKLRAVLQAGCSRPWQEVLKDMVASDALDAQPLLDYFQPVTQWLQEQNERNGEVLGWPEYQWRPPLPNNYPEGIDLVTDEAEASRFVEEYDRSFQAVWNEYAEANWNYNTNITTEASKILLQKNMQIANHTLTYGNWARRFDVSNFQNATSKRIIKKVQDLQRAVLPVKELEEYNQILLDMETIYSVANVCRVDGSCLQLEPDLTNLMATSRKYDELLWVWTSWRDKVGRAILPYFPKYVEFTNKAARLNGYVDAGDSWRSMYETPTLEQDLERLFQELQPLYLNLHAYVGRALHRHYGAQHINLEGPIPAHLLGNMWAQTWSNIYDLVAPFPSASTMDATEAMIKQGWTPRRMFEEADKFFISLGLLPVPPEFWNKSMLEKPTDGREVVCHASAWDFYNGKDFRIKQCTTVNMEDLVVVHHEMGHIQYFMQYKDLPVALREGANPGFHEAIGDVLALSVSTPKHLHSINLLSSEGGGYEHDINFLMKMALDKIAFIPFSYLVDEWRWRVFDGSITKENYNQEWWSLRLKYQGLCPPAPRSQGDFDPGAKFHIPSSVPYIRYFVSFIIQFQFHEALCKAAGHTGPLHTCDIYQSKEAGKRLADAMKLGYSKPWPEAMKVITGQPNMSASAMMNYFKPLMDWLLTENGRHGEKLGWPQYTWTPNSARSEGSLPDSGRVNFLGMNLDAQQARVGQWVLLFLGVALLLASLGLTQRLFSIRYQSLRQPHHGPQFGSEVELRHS
Text: Moreover, the C- and N-terminal amino acids are believed to play a crucial function in the activity of ACEi peptides ([21]). Yu et al. ([56]) reported that C-terminus (such as Trp, Tyr, Pro, or Phe) and N-terminus (such as Pro, Phe, Trp, or Met) hydrophobic amino acid residues have positive effects on the ACEi ...

ACE [4] = target: T1, ACE; settings: cited from earlier work
Text: Peptide size and amino acid sequence are two key factors affecting the ACEi ability of BPs ([17], [21]). Peptide size decides the affinity between BPs and ACE because big polypeptides cannot be accommodated in and access the narrow channel of ACE ([21]). For example, VPP and IPP can easily access and bind the Zn^2+ of ACE channel, but ALPMHIR has low binding scores with ACE because it uncomfortably accesses the narrow channel ([19]). In the experiment, TRP3, TRP6, TRP9, and TRP10 are tetrapeptides or pentapeptides, and small size increases their access to the active channel of ACE, and this ha ...

[5] = target: T2, angiotensin-I-converting enzyme (ACE) (UniProt P12822)
T2 sequence: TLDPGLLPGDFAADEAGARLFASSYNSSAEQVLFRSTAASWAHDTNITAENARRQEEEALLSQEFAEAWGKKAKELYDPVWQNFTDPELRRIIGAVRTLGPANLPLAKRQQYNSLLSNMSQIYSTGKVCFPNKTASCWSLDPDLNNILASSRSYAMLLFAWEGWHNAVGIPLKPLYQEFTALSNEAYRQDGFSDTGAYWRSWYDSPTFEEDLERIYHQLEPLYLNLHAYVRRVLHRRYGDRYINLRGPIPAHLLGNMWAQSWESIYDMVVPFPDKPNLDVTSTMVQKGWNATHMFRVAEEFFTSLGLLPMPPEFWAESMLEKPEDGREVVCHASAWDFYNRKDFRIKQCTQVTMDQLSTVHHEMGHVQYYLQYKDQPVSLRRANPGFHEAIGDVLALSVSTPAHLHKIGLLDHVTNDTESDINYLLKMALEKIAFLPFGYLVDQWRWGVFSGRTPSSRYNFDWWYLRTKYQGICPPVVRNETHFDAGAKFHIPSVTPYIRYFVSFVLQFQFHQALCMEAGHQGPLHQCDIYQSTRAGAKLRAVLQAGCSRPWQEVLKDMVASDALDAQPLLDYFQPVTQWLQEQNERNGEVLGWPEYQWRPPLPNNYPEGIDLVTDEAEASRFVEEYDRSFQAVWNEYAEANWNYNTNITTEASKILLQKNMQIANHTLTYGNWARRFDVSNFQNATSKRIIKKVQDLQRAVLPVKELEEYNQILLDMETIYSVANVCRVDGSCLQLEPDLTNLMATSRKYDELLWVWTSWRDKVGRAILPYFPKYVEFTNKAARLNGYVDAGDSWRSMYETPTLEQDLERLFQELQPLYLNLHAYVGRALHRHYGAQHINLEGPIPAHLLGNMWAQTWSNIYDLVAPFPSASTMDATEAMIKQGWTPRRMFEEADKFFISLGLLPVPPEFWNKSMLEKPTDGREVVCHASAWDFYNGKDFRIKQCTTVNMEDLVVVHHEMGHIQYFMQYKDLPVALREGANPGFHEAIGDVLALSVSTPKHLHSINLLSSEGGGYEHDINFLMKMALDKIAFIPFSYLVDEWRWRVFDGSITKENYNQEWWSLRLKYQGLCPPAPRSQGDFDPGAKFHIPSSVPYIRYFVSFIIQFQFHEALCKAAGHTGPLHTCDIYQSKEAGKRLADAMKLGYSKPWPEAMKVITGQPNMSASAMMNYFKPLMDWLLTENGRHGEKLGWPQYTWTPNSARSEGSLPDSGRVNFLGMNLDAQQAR

[6] = target: T2, angiotensin-I-converting enzyme (ACE); remark: listed apart in the source

Molecule: C[C@H](CS)C(=O)N1CCC[C@H]1C(=O)O [Cap, captopril, reference compound]
- NO level in HUVECs (HUVECs [1]; Cap treatment): 53.71 ± 2.313 µM
- ET-1 content in HUVECs (HUVECs [2]; Cap 1.0 μM): 27.32 ± 1.28 pg/mL

Molecule: NC[C@H](O)c1ccc(O)c(O)c1 [NE, norepinephrine, reference compound]
- NO level in HUVECs (HUVECs [1]; NE treatment (0.5 μM)): 18.59 ± 0.82 µM
- ET-1 content in HUVECs (HUVECs [2]; NE 0.5 μM): 73.57 ± 3.09 pg/mL

Molecule: ACKEP [literature ACEi peptide]
- IC50 (ACE [3]): 126 µM

Molecule: FRKE [literature ACEi peptide]
- ACEi IC50 (ACE [3]): 6970 µg/mL

Molecule: IYSP [literature ACEi peptide]
- affinity with ACE (docking) (ACE [4]): -8.3 kcal/mol

Molecule: KFYG [literature ACEi peptide]
- IC50 (ACE [3]): 90.5 µM

Molecule: LAPPSTRH [literature ACEi peptide]
- ACEi IC50 (ACE [3]): 1310 µg/mL

Molecule: LSFR [literature ACEi peptide]
- affinity with ACE (docking) (ACE [4]): -8.5 kcal/mol

Molecule: LVLL [literature ACEi peptide]
- affinity with ACE (docking) (ACE [4]): -8.6 kcal/mol

Molecule: MVGSAPGVL [literature ACEi peptide]
- ACEi IC50 (ACE [3]): 3090 µg/mL

Molecule: NFRPQ [literature ACEi peptide]
- ACEi IC50 (ACE [3]): 4280 µg/mL

Molecule: SHGEY [literature ACEi peptide]
- affinity with ACE (docking) (ACE [4]): -8.7 kcal/mol

Molecule: SPYGF [literature ACEi peptide]
- affinity with ACE (docking) (ACE [4]): -9.7 kcal/mol

Molecule: SWISS [literature ACEi peptide]
- affinity with ACE (docking) (ACE [4]): -8.6 kcal/mol

Molecule: YEGDP [literature ACEi peptide]
- affinity with ACE (docking) (ACE [4]): -8.8 kcal/mol

Molecule: YLRLHF [literature ACEi peptide]
- ACEi IC50 (ACE [3]): 1260 µg/mL

Molecule: YVVF [literature ACEi peptide]
- affinity with ACE (docking) (ACE [4]): -9.8 kcal/mol

- ACEi activity (IC50): inhibition of ACE enzyme activity, substrate FAPGG, 37°C, product measured by HPLC at 228 nm [5]: 490 µg/mL
- ACEi rate (percent inhibition of ACE activity) of the RP-HPLC isolated peptide at 1.5 mg/mL [6]: 83.5%
Molecule: YSHM [TRP9 (YSHM; Tyr-Ser-His-Met)]

- ACEi activity (IC50): inhibition of ACE enzyme activity, substrate FAPGG, 37°C, product measured by HPLC at 228 nm [5]: 670 µg/mL
- ACEi rate (percent inhibition of ACE activity) of the RP-HPLC isolated peptide at 1.5 mg/mL [6]: 78.2%
Molecule: WSPGF [TRP12 (WSPGF; Trp-Ser-Pro-Gly-Phe)]

- ACEi activity (IC50): inhibition of ACE enzyme activity, substrate FAPGG, 37°C, product measured by HPLC at 228 nm [5]: 930 µg/mL
- ACEi rate (percent inhibition of ACE activity) of the RP-HPLC isolated peptide at 1.5 mg/mL [6]: 69.5%
Molecule: WGESF [TRP3 (WGESF; Trp-Gly-Glu-Ser-Phe)]

- ACEi activity (IC50): inhibition of ACE enzyme activity, substrate FAPGG, 37°C, product measured by HPLC at 228 nm [5]: 790 µg/mL
- ACEi rate (percent inhibition of ACE activity) of the RP-HPLC isolated peptide at 1.5 mg/mL [6]: 75.4%
Molecule: IKSW [TRP6 (IKSW; Ile-Lys-Ser-Trp)]
